In US20220306695A1, “COMPSTATIN ANALOGUES AND THEIR MEDICAL USES” (priority 2019, published 2022):
Positions of bridges follow the written chain, without caps; N, C: chain ends. Non-standard residues stand in square brackets, D forms with d. Residues, ends and D or L forms follow the SMILES beside them. Trp(1-Me) = Cn1cc(C[C@H](N)C(=O)O)c2ccccc21; Sar = CNCC(=O)O

Columns and labels:
[1] = test system: classical complement pathway; assay: In vitro haemolysis assay (inhibition of classical complement pathway); format: cell-based, human; conditions: Table 3; human serum, sensitized sheep red blood cells; read-out: IC50[nM], in vitro analysis of inhibition of hemolysis
Outline: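 Serially diluted compound (9 points) was preincubated 15 min at room temperature with diluted human serum, titrated per batch to give 70-90% maximal haemolysis, in Tris/casein buffer pH 7.4 with Mg2+/Ca2+. Antibody-sensitized sheep erythrocytes were then added for 30 min at 37° C, and the reaction was stopped with EDTA. Haemolysis was read at A405, with IC50 from 4PL fit.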

[2] = Solubility test at 10 mg/mL (visual inspection and light scattering); format: physicochemical; conditions: for Solubility, Condition 1 Acetate pH 4: 10 mg/mL compound in 100 mM acetate pH 4; for Solubility, Condition 2 Acetate pH 5: 10 mg/mL compound in 100 mM acetate pH 5; for Solubility, Condition 3 Phosphate pH 6: 10 mg/mL compound in 100 mM phosphate pH 6; for Solubility, Condition 4 Phosphate pH 7: 10 mg/mL compound in 100 mM phosphate pH 7; for Solubility, Condition 5 Phosphate pH 7.5: 10 mg/mL compound in 100 mM phosphate pH 7.5

Row | SMILES | IC50 [1] [nM] | Solubility, Condition 1 Acetate pH 4 [2] | Solubility, Condition 2 Acetate pH 5 [2] | Solubility, Condition 3 Phosphate pH 6 [2] | Solubility, Condition 4 Phosphate pH 7 [2] | Solubility, Condition 5 Phosphate pH 7.5 [2]
1 | CC[C@H](C)[C@@H]1NC(=O)[C@@H](NC(=O)[C@@H](NC(=O)[C@H](CCC(=O)O)NC(=O)[C@H](CO)NC(=O)[C@H](CCC(=O)O)NC(C)=O)[C@@H](C)CC)CSSC[C@@H](C(=O)N[C@@H](CCC(=O)O)C(=O)NCC(=O)N[C@@H](CCC(=O)O)C(N)=O)NC(=O)[C@H](CCCNC(=N)N)NC(=O)[C@H](Cc2c[nH]cn2)NC(=O)[C@H](CCC(=O)O)NC(=O)CNC(=O)[C@H](Cc2c[nH]c3ccccc23)NC(=O)[C@H](CC(=O)O)NC(=O)[C@H](CCC(N)=O)NC(=O)[C@H](Cc2c[nH]c3ccccc23)NC1=O [Compound 36] (Ac-ESEICIWQDWGEHRCEGE-NH2; disulfide 5-15) | < 250 | − (denotes lack of solubility at the given condition, as UV absorbance at 340 nm exceeds 0.1 AU and/or it is visibly turbid or contains particles.) | − (denotes lack of solubility at the given condition, as UV absorbance at 340 nm exceeds 0.1 AU and/or it is visibly turbid or contains particles.) | − (denotes lack of solubility at the given condition, as UV absorbance at 340 nm exceeds 0.1 AU and/or it is visibly turbid or contains particles.) | + (denotes solubility at the given condition, as determined by UV absorbance being less than 0.1 AU at 340 nm and the sample being clear when manually inspected.) | + (denotes solubility at the given condition, as determined by UV absorbance being less than 0.1 AU at 340 nm and the sample being clear when manually inspected.)
2 | CC[C@H](C)[C@H](NC(=O)[C@H](C)NC(=O)[C@H](CO)NC(=O)CNC(C)=O)C(=O)N[C@H]1CSSC[C@@H](C(=O)N(C)CC(=O)N[C@@H](CCC(=O)O)C(N)=O)NC(=O)[C@H](CCCNC(=N)N)NC(=O)[C@H](Cc2c[nH]cn2)NC(=O)[C@H](CCC(=O)O)NC(=O)CNC(=O)[C@H](Cc2c[nH]c3ccccc23)NC(=O)[C@H](CC(=O)O)NC(=O)[C@H](CCC(N)=O)NC(=O)[C@H](Cc2c[nH]c3ccccc23)NC(=O)[C@H]([C@@H](C)CC)NC1=O [Compound 40] (Ac-GSAICIWQDWGEHRC[Sar]E-NH2; disulfide 5-15) | < 250 | − (denotes lack of solubility at the given condition, as UV absorbance at 340 nm exceeds 0.1 AU and/or it is visibly turbid or contains particles.) | − (denotes lack of solubility at the given condition, as UV absorbance at 340 nm exceeds 0.1 AU and/or it is visibly turbid or contains particles.) | + (denotes solubility at the given condition, as determined by UV absorbance being less than 0.1 AU at 340 nm and the sample being clear when manually inspected.) | + (denotes solubility at the given condition, as determined by UV absorbance being less than 0.1 AU at 340 nm and the sample being clear when manually inspected.) | + (denotes solubility at the given condition, as determined by UV absorbance being less than 0.1 AU at 340 nm and the sample being clear when manually inspected.)
3 | CC[C@H](C)[C@H](NC(=O)[C@H](C)NC(=O)[C@H](CO)NC(C)=O)C(=O)N[C@H]1CSSC[C@@H](C(=O)N(C)CC(=O)N[C@@H](CCC(=O)O)C(N)=O)NC(=O)[C@H](CCCNC(=N)N)NC(=O)[C@H](Cc2c[nH]cn2)NC(=O)[C@H](CCC(=O)O)NC(=O)CNC(=O)[C@H](Cc2c[nH]c3ccccc23)NC(=O)[C@H](CC(=O)O)NC(=O)[C@H](CCC(N)=O)NC(=O)[C@H](Cc2c[nH]c3ccccc23)NC(=O)[C@H]([C@@H](C)CC)NC1=O [Compound 41] (Ac-SAICIWQDWGEHRC[Sar]E-NH2; disulfide 4-14) | < 250 | − (denotes lack of solubility at the given condition, as UV absorbance at 340 nm exceeds 0.1 AU and/or it is visibly turbid or contains particles.) | − (denotes lack of solubility at the given condition, as UV absorbance at 340 nm exceeds 0.1 AU and/or it is visibly turbid or contains particles.) | + (denotes solubility at the given condition, as determined by UV absorbance being less than 0.1 AU at 340 nm and the sample being clear when manually inspected.) | + (denotes solubility at the given condition, as determined by UV absorbance being less than 0.1 AU at 340 nm and the sample being clear when manually inspected.) | + (denotes solubility at the given condition, as determined by UV absorbance being less than 0.1 AU at 340 nm and the sample being clear when manually inspected.)
4 | CC[C@H](C)[C@H](NC(=O)[C@H](C)NC(=O)[C@H](CO)NC(=O)CNC(=O)[C@H](CCC(=O)O)NC(C)=O)C(=O)N[C@H]1CSSC[C@@H](C(=O)N(C)CC(=O)N[C@@H](CCC(=O)O)C(=O)NCC(=O)N[C@@H](CCC(=O)O)C(N)=O)NC(=O)[C@H](CCCNC(=N)N)NC(=O)[C@H](Cc2c[nH]cn2)NC(=O)[C@H](CCC(=O)O)NC(=O)CNC(=O)[C@H](Cc2c[nH]c3ccccc23)NC(=O)[C@H](CC(=O)O)NC(=O)[C@H](CCC(N)=O)NC(=O)[C@H](Cc2c[nH]c3ccccc23)NC(=O)[C@H]([C@@H](C)CC)NC1=O [Compound 44] (Ac-EGSAICIWQDWGEHRC[Sar]EGE-NH2; disulfide 6-16) | < 250 | − (denotes lack of solubility at the given condition, as UV absorbance at 340 nm exceeds 0.1 AU and/or it is visibly turbid or contains particles.) | − (denotes lack of solubility at the given condition, as UV absorbance at 340 nm exceeds 0.1 AU and/or it is visibly turbid or contains particles.) | + (denotes solubility at the given condition, as determined by UV absorbance being less than 0.1 AU at 340 nm and the sample being clear when manually inspected.) | + (denotes solubility at the given condition, as determined by UV absorbance being less than 0.1 AU at 340 nm and the sample being clear when manually inspected.) | + (denotes solubility at the given condition, as determined by UV absorbance being less than 0.1 AU at 340 nm and the sample being clear when manually inspected.)
5 | CC[C@H](C)[C@@H]1NC(=O)[C@@H](NC(=O)[C@H](Cc2ccccc2)NC(=O)[C@H](C)NC(=O)[C@H](CO)NC(=O)CNC(=O)[C@H](CCC(=O)O)NC(C)=O)CSSC[C@@H](C(=O)N(C)CC(=O)N[C@@H](CCC(=O)O)C(N)=O)NC(=O)[C@H](CCCNC(=N)N)NC(=O)[C@H](Cc2c[nH]cn2)NC(=O)[C@H](CCC(=O)O)NC(=O)CNC(=O)[C@H](Cc2c[nH]c3ccccc23)NC(=O)[C@H](CC(=O)O)NC(=O)[C@H](CCC(N)=O)NC(=O)[C@H](Cc2c[nH]c3ccccc23)NC1=O [Compound 45] (Ac-EGSAFCIWQDWGEHRC[Sar]E-NH2; disulfide 6-16) | < 100 | − (denotes lack of solubility at the given condition, as UV absorbance at 340 nm exceeds 0.1 AU and/or it is visibly turbid or contains particles.) | + (denotes solubility at the given condition, as determined by UV absorbance being less than 0.1 AU at 340 nm and the sample being clear when manually inspected.) | + (denotes solubility at the given condition, as determined by UV absorbance being less than 0.1 AU at 340 nm and the sample being clear when manually inspected.) | + (denotes solubility at the given condition, as determined by UV absorbance being less than 0.1 AU at 340 nm and the sample being clear when manually inspected.) | + (denotes solubility at the given condition, as determined by UV absorbance being less than 0.1 AU at 340 nm and the sample being clear when manually inspected.)
6 | CC[C@H](C)[C@H](NC(=O)[C@H](C)NC(=O)[C@H](CO)NC(=O)CNC(=O)[C@H](CCC(=O)O)NC(C)=O)C(=O)N[C@H]1CSSC[C@@H](C(=O)N(C)CC(=O)N[C@@H](CCC(=O)O)C(N)=O)NC(=O)[C@H](CCCNC(=N)N)NC(=O)[C@H](Cc2c[nH]cn2)NC(=O)[C@H](CCC(=O)O)NC(=O)CNC(=O)[C@H](Cc2c[nH]c3ccccc23)NC(=O)[C@H](CC(=O)O)NC(=O)[C@H](CCC(N)=O)NC(=O)[C@H](Cc2cn(C)c3ccccc23)NC(=O)[C@H]([C@@H](C)CC)NC1=O [Compound 49] (Ac-EGSAICI[Trp(1-Me)]QDWGEHRC[Sar]E-NH2; disulfide 6-16) | < 100 | − (denotes lack of solubility at the given condition, as UV absorbance at 340 nm exceeds 0.1 AU and/or it is visibly turbid or contains particles.) | − (denotes lack of solubility at the given condition, as UV absorbance at 340 nm exceeds 0.1 AU and/or it is visibly turbid or contains particles.) | + (denotes solubility at the given condition, as determined by UV absorbance being less than 0.1 AU at 340 nm and the sample being clear when manually inspected.) | + (denotes solubility at the given condition, as determined by UV absorbance being less than 0.1 AU at 340 nm and the sample being clear when manually inspected.) | + (denotes solubility at the given condition, as determined by UV absorbance being less than 0.1 AU at 340 nm and the sample being clear when manually inspected.)
